Data as given in patent EP0539180A1, “Antiviral agents” (SANWA KAGAKU KENKYUSHO CO., LTD., priority 1991, dated 1993).
Where two headings read alike, the source gives them in different places. Marks after values point to notes of the source that are not given here.

Columns and labels:
[1] = test system: HSV-1 (Miyama strain); assay: In vitro antiviral activity against HSV-1 (CPE inhibition, virus titer reduction) in GMK cells; assay type: cell-based; conditions: read-out: Antiviral Activity (ΔTCID50 (log10))
Protocol: The virus titer (TCID₅₀) was determined from CPE of virus infected culture. Antiviral effects of the test compounds were calculated from TCID₅₀ values of the test compounds treated and control cultures and represented by ΔTCID₅₀ (log₁₀).
In this regard, it is noted that prior to be added to the incubation systems, the compounds were dissolved in MEM or ethanol media at 10 mg/ml concentrations, and diluted with MEM media supplemented with 1% fetal bovine serum.

[2] = test system: GMK cells; assay: Cytotoxicity, microscopically observed in GMK cell cultures; assay type: cell-based, green monkey
[3] = test system: HSV-1 (Miyama strain); assay: In vivo anti-HSV-1 activities in intraperitoneally infected mice (Testing 4); design: species or system BALB/c mice; conditions: mice infected with 322 PFU HSV-1; for Survival Ratios after 21 days (%): control 0; for Mean Survival Days: control 6.9
[4] = test system: HSV-1 (Miyama strain); assay: In vivo anti-HSV-1 activities in intraperitoneally infected mice (Testing 5); design: species or system BALB/c mice; conditions: mice infected with 322 PFU HSV-1; for Survival Ratios after 21 days (%): control 0; for Mean Survival Days: control 6.9, *: P<0.05 (U Test)
[5] = 5 mg/kg intraperitoneally for five days
[6] = 20 mg/kg intraperitoneally for five days
[7] = Human alphaherpesvirus 1, 10 μg/ml, HSV-1 (Miyama strain), GMK cells
[8] = Human alphaherpesvirus 1, 50 μg/ml, HSV-1 (Miyama strain), GMK cells
[9] = 10 mg/kg intraperitoneally for five days
[10] = 40 mg/kg intraperitoneally for five days

Structure (SMILES)	log reduction at 10 µg/mL ([1]; Human alphaherpesvirus 1, GMK)	log reduction at 50 µg/mL ([1]; Human alphaherpesvirus 1, GMK)	cytotoxicities ([2]; 100 μg/ml)	log reduction at 100 µg/mL ([1]; Human alphaherpesvirus 1, GMK)	further results
Clc1cccc(N2CCNCC2)c1 [Compound 2, 1-(m-chlorophenyl)piperazine hydrochlorate]	0.46	1.23	(±±)		
Clc1ccc(N2CCNCC2)cc1 [Compound 3, 1-(p-chlorophenyl)piperazine hydrochlorate]	0	1.5	(±±)		
COc1ccccc1N1CCNCC1 [Compound 4, 1-(o-methoxyphenyl)piperazine hydrochlorate]	0.56	1.56	(+)	2.5	
Fc1ccccc1N1CCNCC1 [Compound 5, 1-(o-fluorophenyl)piperazine hydrochlorate]	0.33	1.33	(+)	1.56	
Fc1ccc(N2CCNCC2)cc1 [Compound 6, 1-(p-fluorophenyl)piperazine hydrochlorate]	0	0.5	(+)	1.33	
c1ccc(N2CCNCC2)cc1 [Compound 7, 1-phenylpiperazine]			(+)	0.83	
c1ccc(N2CCCCC2)cc1 [Compound 8, 1-phenylpiperidine]			(+)	0.5	
COc1ccccc1N1CCN(CCN)CC1 [Compound 9, 4-(aminoethyl)-1-(o-methoxyphenyl)piperazine]					Survival Ratios after 21 days (%) [3, 5]: 70%; Mean Survival Days [3, 5]: 17.5* Days; Survival Ratios after 21 days (%) [3, 6]: 50%; Mean Survival Days [3, 6]: 10.9* Days; log reduction at 10 µg/mL [1, 7]: 0.87; log reduction at 50 µg/mL [1, 8]: 1.8; log reduction at 100 µg/mL ([1]; Human alphaherpesvirus 1, 100 μg/ml, HSV-1 (Miyama strain), GMK cells): 2.53
CC[C@]12CCCN3CCc4c(n(c5ccccc45)C(=NOCC(O)CN4CCN(c5ccccc5OC)CC4)C1)[C@@H]32 (stereo partly drawn) [Compound 10]					log reduction at 10 µg/mL [1, 7]: > 3; log reduction at 50 µg/mL [1, 8]: > 2.17; Survival Ratios after 21 days (%) [4, 5]: 50%; Mean Survival Days [4, 5]: 15.4* Days; Survival Ratios after 21 days (%) [4, 9]: 60%; Mean Survival Days [4, 9]: 15.4* Days; Survival Ratios after 21 days (%) [4, 6]: 50%; Mean Survival Days [4, 6]: 16.4* Days; Survival Ratios after 21 days (%) [4, 10]: 50%; Mean Survival Days [4, 10]: 15.5* Days; cytotoxicities ([2]; 50 μg/ml): (±)
FC(F)(F)c1ccccc1N1CCNCC1 [Compound 11]	2	> 4	(±)	< 4	
Clc1cccc(Cl)c1N1CCNCC1 [Compound 12]	1	2.67	(±)	> 3.3	
